The record followed here is patent US12084420B2, “Indoline compounds for inhibiting KIF18A” (Volastra Therapeutics, Inc., priority 2021, dated 2024).

The target of the test is hKIF18A (1-374) (Homo sapiens (Human), UniProt Q8NI77). Kind of test: Inhibition of KIF18A microtubule-dependent ATPase activity (ADP-Glo). The settings on record: KIF18A microtubule-dependent ATPase activity, biochemical assay. On the technique in general: In ADP-Glo the light output rises with the ADP produced.
Sequence of hKIF18A (1-374) (Q8NI77 whole entry, looked up): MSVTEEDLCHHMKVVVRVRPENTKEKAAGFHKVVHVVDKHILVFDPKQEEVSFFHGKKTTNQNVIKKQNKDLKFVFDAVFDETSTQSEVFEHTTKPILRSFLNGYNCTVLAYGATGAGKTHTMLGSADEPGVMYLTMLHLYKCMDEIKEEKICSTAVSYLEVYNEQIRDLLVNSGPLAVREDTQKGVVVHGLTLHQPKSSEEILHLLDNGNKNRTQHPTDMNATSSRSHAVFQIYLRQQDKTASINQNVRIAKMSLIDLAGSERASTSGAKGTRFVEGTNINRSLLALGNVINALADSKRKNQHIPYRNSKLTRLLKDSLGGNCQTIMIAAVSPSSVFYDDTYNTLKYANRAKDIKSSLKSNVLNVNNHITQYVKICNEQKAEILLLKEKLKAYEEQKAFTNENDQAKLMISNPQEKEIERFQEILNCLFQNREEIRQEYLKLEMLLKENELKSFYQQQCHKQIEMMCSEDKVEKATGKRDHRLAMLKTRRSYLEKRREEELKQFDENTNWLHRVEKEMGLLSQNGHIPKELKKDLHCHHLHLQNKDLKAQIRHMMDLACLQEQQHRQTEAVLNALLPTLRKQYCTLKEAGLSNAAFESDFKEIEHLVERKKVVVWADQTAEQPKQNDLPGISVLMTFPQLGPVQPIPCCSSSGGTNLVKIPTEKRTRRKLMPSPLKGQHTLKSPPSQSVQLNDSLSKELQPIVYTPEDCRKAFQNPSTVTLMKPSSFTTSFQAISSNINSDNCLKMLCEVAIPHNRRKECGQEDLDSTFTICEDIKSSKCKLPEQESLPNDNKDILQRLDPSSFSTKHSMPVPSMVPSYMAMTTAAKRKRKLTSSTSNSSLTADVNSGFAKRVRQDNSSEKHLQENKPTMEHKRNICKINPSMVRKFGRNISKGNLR
Sequence of hKIF18A (1-374) (Q2XVP4 whole entry partner, looked up): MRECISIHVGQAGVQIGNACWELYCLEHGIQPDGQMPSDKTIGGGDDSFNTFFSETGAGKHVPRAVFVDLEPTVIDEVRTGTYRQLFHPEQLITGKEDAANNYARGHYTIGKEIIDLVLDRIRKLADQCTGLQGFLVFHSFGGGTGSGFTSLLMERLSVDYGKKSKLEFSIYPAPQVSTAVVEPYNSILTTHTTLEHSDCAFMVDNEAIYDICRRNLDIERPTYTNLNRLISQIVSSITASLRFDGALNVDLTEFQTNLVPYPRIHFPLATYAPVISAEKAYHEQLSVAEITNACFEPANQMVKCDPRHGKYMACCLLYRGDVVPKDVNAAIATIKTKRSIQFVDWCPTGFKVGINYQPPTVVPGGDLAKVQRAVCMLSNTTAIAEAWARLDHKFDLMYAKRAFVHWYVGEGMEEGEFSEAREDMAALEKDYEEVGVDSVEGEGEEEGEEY
Sequence of hKIF18A (1-374) (P02554 whole entry partner, looked up): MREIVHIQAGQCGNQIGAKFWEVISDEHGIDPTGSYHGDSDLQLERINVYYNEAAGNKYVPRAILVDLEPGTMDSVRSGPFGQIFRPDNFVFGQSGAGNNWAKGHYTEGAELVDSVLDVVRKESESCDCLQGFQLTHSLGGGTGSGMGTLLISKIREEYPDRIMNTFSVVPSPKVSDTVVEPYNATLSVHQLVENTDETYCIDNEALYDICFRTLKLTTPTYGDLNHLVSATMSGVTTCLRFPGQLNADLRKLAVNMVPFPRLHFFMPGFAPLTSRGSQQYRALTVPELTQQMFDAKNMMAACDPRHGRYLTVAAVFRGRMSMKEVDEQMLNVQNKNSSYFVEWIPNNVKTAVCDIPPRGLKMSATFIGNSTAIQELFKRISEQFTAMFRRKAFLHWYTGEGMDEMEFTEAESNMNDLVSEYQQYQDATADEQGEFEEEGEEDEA
Experimental: Biological Assays Inhibition of KIF18A Microtubule-Dependent ATPase Activity:
Test compounds were plated in a 3× dilution scheme in a 384-well plate. Assay buffer: 80 mM PIPES (pH 6.9), 1 mM MgCl2, 75 mM KCl, 1 mM EGTA, 1 mM DTT, 0.01% BSA, 0.005% Tween-20, 1 μM Taxol in H2O. […] After incubation at room temperature for 30 min, 2.5 μL of microtubule mix was added [0.2 mg/mL pre-formed microtubules, 2.0 mM ATP in assay buffer], the plate was centrifuged for 30 s and then incubated at 28° C. for 60 min. 5 μL of Promega® ADP-Glo Max R1 was added, the plate was centrifuged for 30 s, and the mixture incubated for 4 h at room temperature. 10 μL of Promega® ADP-Glo Max R2 was added, the plate centrifuged for 30 s, and incubated for 60 min at room temperature. Luminescence was measured with an Envision plate reader, and % Inhibition was calculated for each well as: ([max−min]−[test−min])/[max−min]. IC50 values were calculated from concentration vs. % Inhibition data via a four-parameter variable slope model.
Broadly, the IC50 is the concentration that gives 50% inhibition. Lower therefore signals greater potency. Consider `CCS(=O)(=O)Nc1ccc2c(c1)C1(CCC3(CC3)CC1)CN2C(=O)c1cccc(S(=O)(=O)NC2CC(F)(F)C2)c1` [Compound 293, N-(3,3-difluorocyclobutyl)-3-(5″- (ethylsulfonamido)dispiro[cyclopropane-1,1′-cyclohexane-4′,3″-indoline]-1″- carbonyl)benzenesulfonamide], for which half-maximal inhibition (IC50) was put at 17 nM.

Regarding `CC1=CCC2(CC1)CN(C(=O)c1cccc(S(=O)(=O)NC(C)(C)C)c1)c1ccc(NS(C)(=O)=O)cc12` (centres unmarked) [Compound 295, N-(tert-butyl)-3-(4-methyl-5′-(methylsulfonamido)spiro[cyclohexane-1,3′-indolin]-3-en-1′-carbonyl)benzenesulfonamide], the IC50 stood at 38 nM.

With `CC(C)(C)NS(=O)(=O)c1ccc(C(=O)N2CC3(CCC4(CC4)CC3)c3cc(NS(C)(=O)=O)ccc32)o1` [Compound 299, N-(tert-butyl)-5-(5″- (methylsulfonamido)dispiro[cyclopropane-1,1′-cyclohexane-4′,3″-indoline]-1″-carbonyl)furan-2-sulfonamide], the IC50 was determined as 14 nM.

On to `COCCS(=O)(=O)Nc1ccc2c(c1)C1(CCC3(CC3)CC1)CN2C(=O)c1cccc(S(=O)(=O)NC(C)(C)C)c1` [Compound 300, N-(tert-butyl)-3-(5″-((2-methoxyethyl)sulfonamido)dispiro [cyclopropane-1,1′-cyclohexane-4′,3″- indoline]-1″- carbonyl)benzenesulfonamide], for which the half-maximal inhibitory concentration (IC50) came out at 31 nM.

Compound `CS(=O)(=O)Nc1ccc2c(c1)C1(CCC3(CC3)CC1)CN2C(=O)c1csc(C(O)C2CCCC2)c1` (centres unmarked) [Compound 301, N-(1″-(5-(cyclopentyl(hydroxy)methyl)thiophene-3-carbonyl)dispiro[cyclopropane-1,1′-cyclohexane-4′,3″-indolin]-5″-yl)methanesulfonamide] had an IC50 of 21 nM.

For the compound `COc1ccc(C(=O)N2CC3(CCC4(CC4)CC3)c3cc(NS(C)(=O)=O)ccc32)cc1S(=O)(=O)N1CC(F)(F)C1` [Compound 302, N-(1″-(3-((3,3-difluoroazetidin-1-yl)sulfonyl)-4-methoxybenzoyl)dispiro[cyclopropane-1,1′-cyclohexane-4′,3″-indolin]-5″- yl)methanesulfonamide], the IC50 was 19 nM.

`CS(=O)(=O)Nc1ccc2c(c1)C1(CCC3(CC3)CC1)CN2C(=O)c1ccc(O)c(S(=O)(=O)N2CC(F)(F)C2)c1` [Compound 303, N-(1″-(3-((3,3-difluoroazetidin-1-yl)sulfonyl)-4-hydroxybenzoyl)dispiro[cyclopropane-1,1′-cyclohexane-4′,3″-indolin]-5″-yl)methanesulfonamide] registered an IC50 of 8.2 nM. This IC50 is about 2.3-fold lower than that of the compound before.

For `CS(=O)(=O)Nc1ccc2c(c1)C1(CCC3(CC3)CC1)CN2C(=O)c1cccc(C(O)CC2CCC2)c1` (centres unmarked) [Compound 305, N-(1″-(3-(2-cyclobutyl-1-hydroxyethyl)benzoyl)dispiro [cyclopropane-1,1′-cyclohexane-4′,3″-indolin]-5″-yl)methanesulfonamide], the IC50 came to 8.9 nM.

On to `CS(=O)(=O)Nc1ccc2c(c1)C1(CCC3(CC3)CC1)CN2C(=O)c1cccc(C(F)(F)C2CCCC2)c1` [Compound 306, N-(1″-(3-(cyclopentyldifluoromethyl)benzoyl)dispiro[cyclopropane-1,1′-cyclohexane-4′,3″-indolin]-5″- yl)methanesulfonamide], for which the IC50 was 33 nM.

As for `COc1ccc(C(=O)N2CC3(CCC4(CC4)CC3)c3cc(NS(C)(=O)=O)ccc32)cc1S(=O)(=O)NC12CC(C1)C2` [Compound 311, N-(bicyclo[1.1.1]pentan-1-yl)-2-methoxy-5-(5″-(methylsulfonamido)dispiro[cyclopropane-1,1′-cyclohexane-4′,3″-indoline]-1″- carbonyl)benzenesulfonamide], the IC50 was 5.2 nM.

Turning to `CS(=O)(=O)Nc1ccc2c(c1)C1(CCC3(CC3)CC1)CN2C(=O)c1cccc(C(O)C2CCC2)c1` (centres unmarked) [Compound 313, N-(1″-(3-(cyclobutyl(hydroxy)methyl)benzoyl)dispiro[cyclopropane-1,1′-cyclohexane-4′,3″-indolin]-5″- yl)methanesulfonamide], the IC50 is 20 nM.

The compound `CS(=O)(=O)Nc1ccc2c(c1)C1(CCC3(CC3)CC1)CN2C(=O)c1cccc(C(O)CN2CC(F)(F)C2)c1` (centres unmarked) [Compound 314, N-(1″-(3-(2-(3,3-difluoroazetidin-1-yl)-1-hydroxyethyl)benzoyl)dispiro[cyclopropane-1,1′-cyclohexane-4′,3″-indolin]-5″-yl)methanesulfonamide] displayed an IC50 of 28 nM.

Compound `CS(=O)(=O)Nc1ccc2c(c1)C1(CCC3(CC3)CC1)CN2C(=O)c1cccc(C(O)CN2CCC(F)(F)CC2)c1` (centres unmarked) [Compound 315, N-(1″-(3-(2-(4,4-difluoropiperidin-1-yl)-1-hydroxyethyl)benzoyl)dispiro[cyclopropane-1,1′-cyclohexane-4′,3″-indolin]-5″-yl)methanesulfonamide] had an IC50 of 53 nM.

The compound `CS(=O)(=O)Nc1ccc2c(c1)C1(CCC3(CC3)CC1)CN2C(=O)c1ccnc(C(O)C2CCCC2)c1` (centres unmarked) [Compound 316, N-(1″-(2-(cyclopentyl(hydroxy)methyl)isonicotinoyl)dispiro[cyclopropane-1,1′-cyclohexane-4′,3″-indolin]-5″- yl)methanesulfonamide] came in with an IC50 of 18 nM.

In the case of `CS(=O)(=O)Nc1ccc2c(c1)C1(CCC3(CC3)CC1)CN2C(=O)c1cccc(C(O)C2CCCC2)n1` (centres unmarked) [Compound 317, N-(1″-(6-(cyclopentyl(hydroxy)methyl)picolinoyl)dispiro[cyclopropane-1,1′-cyclohexane-4′,3″-indolin]-5″- yl)methanesulfonamide], the IC50 amounted to 11 nM.

Consider `CS(=O)(=O)Nc1ccc2c(c1)C1(CCC3(CC3)CC1)CN2C(=O)c1ccc(S(=O)(=O)N2CC3(CCC3)C2)o1` [Compound 321, N-(1″-(5-((2-azaspiro[3.3]heptan-2-yl)sulfonyl)furan-2-carbonyl)dispiro[cyclopropane-1,1′-cyclohexane-4′,3″-indolin]-5″- yl)methanesulfonamide], for which inhibition was half-maximal at 6.3 nM (IC50).

On to `C=C1CCC2(CC1)CN(C(=O)c1cccc(S(=O)(=O)NC(C)(C)C)c1)c1ccc(NS(C)(=O)=O)cc12` [Compound 324, N-(tert-butyl)-3-(4-methylene-5′-(methylsulfonamido)spiro[cyclohexane-1,3′-indoline]-1′-carbonyl)benzenesulfonamide], for which the IC50 came out at 21 nM. This IC50 is about 3.3-fold higher than that of the compound before.

With `CC(C)S(=O)(=O)c1cccc(C(=O)N2CC3(CCC4(CC4)CC3)c3cc(NS(C)(=O)=O)ccc32)c1` [Compound 326, N-(1″-(3-(isopropylsulfonyl)benzoyl)dispiro [cyclopropane-1,1′-cyclohexane-4′,3″- indolin]-5″-yl)methanesulfonamide], the IC50 was 50 nM.

In turn, `CCS(=O)(=O)Nc1ccc2c(c1)C1(CCC(F)(F)CC1)CN2C(=O)c1cccc(S(=O)(=O)NC(C)(C)C)c1` [Compound 327, N-(tert-butyl)-3-(5′-(ethylsulfonamido)-4,4-difluorospiro[cyclohexane-1,3′-indoline]-1′-carbonyl)benzenesulfonamide] yielded an IC50 of 44 nM.

As to `CC1(F)CCC2(CC1)CN(C(=O)c1cccc(S(=O)(=O)NC(C)(C)C)c1)c1ccc(NS(C)(=O)=O)cc12` (centres unmarked) [Compound 329, N-(tert-butyl)-3-(4-fluoro-4-methyl-5′-(methylsulfonamido)spiro[cyclohexane-1,3′-indoline]-1′-carbonyl)benzenesulfonamide], it took 72 nM to reach half-maximal inhibition (IC50). This IC50 is about 1.6-fold higher than that of the compound before.
